Laboratory results as given in patent publication US20250085273A1, “NOVEL RAPID DRUG DISCOVERY FOR SEPSIS AND AGENTS FOR USE AS SEPSIS THERAPY” (priority 2023, published 2025).
Counter-ions that a name gives are not always drawn.

Tests used:
Type in all cases: in vivo, Danio rerio
[1] = system: 3-dpf Zebrafish Embryos Challenged with LPS (P. aeruginosa 60 μg/mL); settings: for Percent Rescue (Mort + Tail Edema): 3-dpf embryos, n=16; for 3 dpf Embryos Percent Rescue (Mort + Tail Edema): initial 3-dpf screen shown for reference
Description: Healthy, normally developing embryos collected from the adult AB zebrafish spawning events were treated with 75 μM of 1-phenyl 2-thiourea (PTU) in EM prior to 24 hours post fertilization (hpf) to block pigmentation formation (Karlsson et al, 2001). These embryos were then placed into an incubator at 28.5° C. until they reached 3-dpf. Embryos were then removed from the incubator and plated individually into the wells of 96 well plates containing 50 μL of EM.
A super stock of 120 μg/mL of P. aeruginosa LPS was made up in EM in a glass container. This stock was then used to make sub stocks of 120 μg/mL P. aeruginosa LPS (positive control) and 120 μg/mL P. aeruginosa LPS containing 20 μM of test drug in glass scintillation vials. Immediately after the sub stocks were made, the wells were dosed with either 50 μL of 120 μg/mL of P. aeruginosa, 120 μg/mL of P. aeruginosa with 20 μM of test drug, or EM (1:1 Dilution). Each 96 well plate had one LPS positive control (n=16), 4 different test drugs with P. aeruginosa LPS (n=16 per drug), and one negative control (n=16). Once the plates were dosed, they were covered with parafilm and placed into an incubator at 28.5° C. The plates were removed at 6- and 24-hours post exposure to be scored for tail edema and mortality. All 644 drugs evaluated for rescue from mortality and tail edema induced by P. aeruginosa LPS exposure as compared to LPS-treated controls after 24 hours of exposure.
3-dpf embryos were challenged with 60 μg/mL P. aeruginosa LPS in combination with single 10 μM concentration of each compound for 24 hours (n=16 fish per compound). […] Other 29 compounds exceeded 60% rescue of tail edema and mortality at 24 hours post exposure.

[2] = system: 5-dpf zebrafish larvae challenged with P. aeruginosa LPS 60 μg/mL; settings: compound 10 μM; for 5 dpf Embryos Percent Rescue (Mort + Tail Edema): 5-dpf larvae
Source text: Confirmatory testing followed the same methods as the initial testing but used 5-dpf larvae instead of the 3-dpf larvae that were used for the initial screening because they were easier to handle and replicated the methods of Philip et al. (2017).
Next, follow-on 5-dpf screening was implemented to confirm initial screening with more larvae. Zebrafish swim faster at 5-dpf (requiring more time to load 96 plates), and all major organ systems are functioning at 5-dpf and thus determined as advantageous for follow-on confirmation.

[3] = system: zebrafish (4 dpf pre-treated, LPS exposure at 5-dpf) challenged with P. aeruginosa LPS 60 μg/mL; settings: number of n = 16 fish
Description: Drugs identified with >80% rescue were subjected to additional testing. Drug pretreatment for 24 hours prior to LPS challenge was evaluated to determine if any prophylactic benefit could be realized with any of the top rescue drugs. The intent was to determine if drug pre-treatment might be used at the point of injury as a preventative therapeutic before the onset of infection and development of sepsis. Parallel groups of fish received a 24-hour drug pre-treatment or no drug pre-treatment prior to LPS challenge. For this test, 4 dpf PTU-treated zebrafish embryos were placed into 96 well plates containing 100 μL of EM. […] All plates were covered with parafilm and placed into an incubator at 28.5° C. for 24 hours. […] Once the plates were dosed, they were covered with parafilm and placed into an incubator at 28.5° C. The plates were removed at 6- and 24-hours post exposure and scored for tail edema and mortality. Once the 24-hour tail edema and mortality endpoints were collected, a neurobehavioral test was conducted as described in section 2.8.

[4] = P. aeruginosa LPS 60 μg/mL, compound 10 μM, 24 hours
[5] = P. aeruginosa LPS 60 μg/mL, compound 10 μM
[6] = 24-hour 10 μM drug pre-treatment

Molecule	Percent Rescue (Mort + Tail Edema) [1, 4]	3 dpf Embryos Percent Rescue (Mort + Tail Edema) [1, 5]	5 dpf Embryos Percent Rescue (Mort + Tail Edema) [2]	other results
CN[C@H]1CC[C@@H](c2ccc(Cl)c(Cl)c2)c2ccccc21 [Compound 37, Sertraline (hydrochloride)]	88%	88%	31%	–
Bedaquiline fumarate [Compound 474]	94%	94%	0%	–
CC(C)(C)c1ccc(C(O)CCCN2CCC(C(O)(c3ccccc3)c3ccccc3)CC2)cc1 (stereo not shown) [Compound 44, Terfenadine]	75%	75%	0%	pericardial edema observation ([1]; 3-dpf, 24 hours): had pericardial edemas; mortality (survival) in 3-dpf initial screen ([1]; 3-dpf, P. aeruginosa LPS 60 μg/mL, 24 hours): alive at 24 hours
Alverine (citrate) [Compound 138]	69%	69%	38%	–
COc1cc2ncnc(Nc3ccc(F)c(Cl)c3)c2cc1OCCCN1CCOCC1 [Compound 516, Gefitinib (ZD1839)]	50%	–	–	–
Almotriptan (malate) [Compound 6]	63%	63%	63%	–
C[C@H]1N=C(N(C)C)N=C(N)N1 [Compound 317, Imeglimin (hydrochloride)]	50%	–	–	–
Cc1cc(Nc2ncc(Cl)c(Nc3ccccc3S(=O)(=O)C(C)C)n2)c(OC(C)C)cc1C1CCNCC1 [Compound 378, Ceritinib dihydrochloride]	75%	75%	38%	–
CC(C)(C)c1cc(NC(=O)Nc2ccc(-c3cn4c(n3)sc3cc(OCCN5CCOCC5)ccc34)cc2)no1 [Compound 598, Quizartinib (AC220)]	56%	–	–	–
CCN(CC)CCNC(=O)c1c(C)[nH]c(/C=C2\C(=O)Nc3ccc(F)cc32)c1C.O=C(O)C[C@H](O)C(=O)O [Sunitnib (malate)]	–	–	–	24 hour Tail Edema, No-Drug Pretreatment ([3]; 10 μM drug with LPS 60 μg/mL, no 24-hour pre-treatment): 4 fish; 24 Hour Mortality and Tail Edema, Drug Pretreatment [3, 6]: 2 fish; 24 Hour Mortality, Drug Pretreatment [3, 6]: 1 fish; 24 hour Tail Edema, Drug Pretreatment ([3]; 24-hour 10 μM drug pre-treatment before LPS 60 μg/mL): 1 fish; 24 Hour Mortality and Tail Edema, No-Drug Pretreatment ([3]; no 24-hour pre-treatment): 5 fish; 24 Hour Mortality, No Drug Pretreatment ([3]; no 24-hour pre-treatment): 1 fish
CCN(CC)CCNC(=O)c1c(C)[nH]c(/C=C2\C(=O)Nc3ccc(F)cc32)c1C [Compound 354, Sunitinib (Malate)]	88%	88%	100%	rescue of tail edema and mortality (sepsis rescue rate) at 3-dpf ([1]; 3-dpf, P. aeruginosa LPS 60 μg/mL, compound 10 μM, 24 hours): 88%; rescue of tail edema and mortality (sepsis rescue rate) at 5-dpf ([2]; 5-dpf): 100%
CNS(=O)(=O)CCc1ccc2[nH]cc(C3CCN(C)CC3)c2c1 [Compound 438, Naratriptan (hydrochloride)]	50%	–	–	–
CC(C)NCC(O)COc1cccc2[nH]ccc12 (stereo not shown) [Compound 12, Pindolol]	56%	–	–	–
Lumateperone (tosylate) [Compound 30]	75%	75%	19%	–
N[C@@H]1C[C@H]1c1ccccc1.N[C@@H]1C[C@H]1c1ccccc1.O=S(=O)(O)O [Compound 7, Tranylcypromine (hemisulfate)]	88%	88%	56%	–
C[C@H](N)[C@H](O)c1ccc(O)c(O)c1 [Compound 10, Levonordefrin]	63%	63%	75%	–
CN1CCc2c(c3ccccc3n2Cc2ccccc2)C1 [Compound 318, Mebhydrolin]	56%	–	–	–
